Experimental data reported in US20230414575A1, “MK2 ACTIVATING COMPOUNDS FOR USE IN TREATING VASCULAR LEAK AND ENDOTHELIAL BARRIER DISORDERS” (Akttyva Therapeutics, Inc., priority 2020, published 2023).

Columns and labels:
[1] = target: T1, MK2 (Rattus norvegicus, UniProt Q80ZF4); assay: ELISA MK2 cell-based activity assay (phospho-HSP-27), RMVEC cells; conditions: compound 20 μM, 30 minutes, 37° C.; for Average Response HSP27: phospho-HSP27 ELISA
T1 construct: endogenous in cells; host or cells: rat microvascular endothelial cells (RMVEC)
T1 sequence (Q80ZF4 1-386): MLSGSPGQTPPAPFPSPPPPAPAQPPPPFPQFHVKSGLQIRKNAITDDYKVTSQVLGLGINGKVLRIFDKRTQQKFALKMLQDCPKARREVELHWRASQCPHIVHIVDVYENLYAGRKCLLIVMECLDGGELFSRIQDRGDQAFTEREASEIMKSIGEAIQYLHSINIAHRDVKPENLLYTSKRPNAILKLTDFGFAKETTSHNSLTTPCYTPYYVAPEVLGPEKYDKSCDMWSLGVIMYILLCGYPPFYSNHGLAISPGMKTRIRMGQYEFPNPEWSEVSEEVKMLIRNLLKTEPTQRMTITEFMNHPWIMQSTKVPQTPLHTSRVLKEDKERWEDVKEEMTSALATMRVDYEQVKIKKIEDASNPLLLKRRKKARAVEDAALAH
Description: (§1) The MK2 activator candidates, identified using the artificial intelligence (AI)-assisted docking approach, were tested in activity assays for lead selection against the MK2 target. MK2 activation was assessed using (a) a cell-based assay using rat microvascular endothelial cells (RMVEC) and (b) human cancer skin fibroblast cells (Malme-3M). In both assays, an Enzyme-linked ImmunoSorbent Assay (ELISA) technique was used to measure (HSP-27) phosphorylation (DYC2314-2, R&D Systems). Both cell lines were grown to confluency in a 96-well tissue culture plate and treated at 37° C. for 30 minutes with the test compounds at concentrations of 20 μM. The cells were subsequently lysed with a lysis solution containing 0.5% Triton X-100 and anti-proteolysis agents. The resulting lysates were then loaded onto ELISA plates coated with anti-rat phospho-HSP27. After incubation and washing, the plates were treated with an horseradish peroxidase (HRP)-conjugated anti-phospho-HSP27 secondary antibody and then measured for chemiluminescence. Higher activity compounds, acting on MK2, induced higher levels of HSP-27 phosphorylation, as measured by the ELISA.

[2] = target: T2, MK2 (Homo sapiens, UniProt P49137); assay: ELISA MK2 cell-based activity assay (phospho-HSP-27), Malme-3M cells; conditions: for Ratio to Control / Pho-HSP27: Malme-3M cells, compound 20 μM, 30 minutes, 37° C.; for Pho-HSP27: phospho-HSP27 ELISA; for response in phospho-HSP27 ELISA, overall ranking: overall statement on compounds tested at 20 μM (Malme-3M and RMVEC cells)
T2 construct: endogenous in cells; host or cells: Malme-3M
T2 sequence (P49137 whole entry): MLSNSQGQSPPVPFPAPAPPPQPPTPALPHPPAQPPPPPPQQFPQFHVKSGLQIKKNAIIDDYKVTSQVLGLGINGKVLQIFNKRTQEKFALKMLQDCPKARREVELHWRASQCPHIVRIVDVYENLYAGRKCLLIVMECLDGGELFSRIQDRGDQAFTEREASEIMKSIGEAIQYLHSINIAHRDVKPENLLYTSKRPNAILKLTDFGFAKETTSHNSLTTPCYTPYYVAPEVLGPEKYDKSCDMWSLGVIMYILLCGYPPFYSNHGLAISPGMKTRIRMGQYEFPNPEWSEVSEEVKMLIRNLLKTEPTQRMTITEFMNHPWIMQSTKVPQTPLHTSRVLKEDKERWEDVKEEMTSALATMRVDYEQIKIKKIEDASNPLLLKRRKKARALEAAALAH
Description: as §1

[3] = target: T1, MK2; assay: Western blot of HSP-27 phosphorylation in rat microvascular endothelial cells; type: cell-based; conditions: 20 μM, 30 minutes, 37° C., of five compounds tested
Description: In order to assess the functional activity of the putative MK2 binding activators, a series of these compounds (i.e., Leflunomide, Netupitant, Paliperidone, Lomitapide, and Perospirone) were analyzed by Western blot analysis. Rat microvascular endothelial cells were grown to confluency in 35 mm tissue culture dishes. The cells were treated with or without the putative MK2 binding activators at 20 μM concentration for 30 minutes at 37° C. As a positive control, one of the cell dishes was exposed to UV light for ca. 10 minutes. […] The membrane was washed, treated with a chemiluminescence substrate, and digitally imaged followed by quantification by densitometry. The intensity of detected signal was proportional to the MK2 activation potency of the tested compound.
Western blot results from the compounds analyzed by the above-described method are provided in FIG. 1 and graphically as a histogram plot in FIG. 2, after normalization for HSP-27 signal.
The two bands seen in each lane of the blots represent monomeric and dimeric forms of both phosphorylated and unphosphorylated HSP-27. The intensity of the bands was quantified by densitometry and then each raw readout was normalized by the signal intensity of unphosphorylated HSP-27, in order to correct for any differences in lysate load across the various treatment conditions.

Row | SMILES | Ratio Compound/control [1] | Average Response HSP27 [1] [pg/mL] | Ratio to Control [2] | Pho-HSP27 [2] [pg/mL] | response in phospho-HSP27 ELISA, overall ranking [2] | increase in HSP-27 phosphorylation (Western blot, normalized for HSP-27 signal) [3]
1 | C=CCn1c(=O)c2cnc(Nc3ccc(N4CCN(C)CC4)cc3)nc2n1-c1cccc(C(C)(C)O)n1 [Compound 36, Azd-1775] | 0.9 | 21.4 | 0.7 | 15.7 | – | –
2 | FC(F)(F)c1ccc(/C=C/c2nc(COc3ccc(CCCCn4ccnn4)cc3)co2)cc1 [Compound 37, Mubritinib] | 1.6 | 34.0 | 1.6 | 36.8 | – | –
3 | Nc1ccccc1NC(=O)c1ccc(CNc2nccc(-c3cccnc3)n2)cc1 [Compound 38, Mocetinostat] | 1.0 | 17.8 | 0.9 | 21.2 | – | –
4 | Cc1nc2ccc(CN(C)c3ccc(C(=O)N[C@@H](CCC(=O)O)C(=O)O)s3)cc2c(=O)[nH]1 [Compound 41, Raltitrexed] | 1.1 | 25.4 | 1.7 | 38.7 | – | –
5 | Cc1cn(-c2cc(NC(=O)c3ccc(C)c(Nc4nccc(-c5cccnc5)n4)c3)cc(C(F)(F)F)c2)cn1 [Compound 51, Nilotinib] | 1.1 | 18.2 | 0.6 | 12.7 | – | –
6 | Cc1cn(-c2cc(NC(=O)c3ccc(C)c(Nc4nccc(-c5cnccn5)n4)c3)cc(C(F)(F)F)c2)cn1 [Compound 52, Radotinib] | 1.0 | 21.7 | 0.9 | 20.8 | – | –
7 | CN(C)Cc1c(C(=O)NCCOc2ccc(C(=O)NO)cc2)oc2ccccc12 [Compound 54, Abexinostat] | 2.3 | 48.4 | 37.2 | 836.0 | most robust response | –
8 | Fc1ccccc1-c1nc2ccn(Cc3ccc(-c4ccc(C(F)(F)F)cc4C(F)(F)F)nn3)cc-2n1 [Compound 66, Tegobuvir] | 1.2 | 26.2 | 0.9 | 20.9 | – | –
9 | O=C(NC1CCN(CCCCC2(C(=O)NCC(F)(F)F)c3ccccc3-c3ccccc32)CC1)c1ccccc1-c1ccc(C(F)(F)F)cc1 [Compound 68, Lomitapide] | 3.4 | 39.2 | 37.7 | 848.5 | most robust response | strongest increase in HSP-27 phosphorylation

Second part, led by results:

Row | Ratio Compound/control [1] | Average Response HSP27 [1] [pg/mL] | Ratio to Control [2] | Pho-HSP27 [2] [pg/mL] | response in phospho-HSP27 ELISA, overall ranking [2] | SMILES | increase in HSP-27 phosphorylation (Western blot, normalized for HSP-27 signal) [3]
10 | 1.2 | 20.4 | 0.7 | 15.2 | – | Cc1cc(C(=O)Nc2cc(Nc3ccc4c(/C=C/c5ccccn5)n[nH]c4c3)ccc2F)n(C)n1 [Compound 74, Ag-13958] | –
11 | 0.6 | 15.2 | 0.7 | 15.0 | – | O=C(Nc1ccc(-c2ccnc(Nc3ccc(N4CCOCC4)cc3)n2)cc1)C1CCCN1 (centres unmarked) [Compound 78, Xl-019] | –
12 | 2.1 | 33.7 | 1.3 | 29.9 | – | CC(=O)Nc1nc2c(Oc3cc(-c4ccc(C(F)(F)F)cc4)ncn3)cccc2s1 [Compound 83, Amg-517] | –
13 | 1.3 | 27.6 | 1.5 | 33.2 | – | O=C(O)CCn1c2c(c3ccccc31)C[C@H](NS(=O)(=O)c1ccc(F)cc1)CC2 [Compound 93, Ramatroban] | –
14 | 0.8 | 18.6 | 1.1 | 24.1 | – | O=C(O)c1ccc2nc(-c3cc(Cl)cc(Cl)c3)oc2c1 [Compound 95, Tafamidis] | –
15 | 1.2 | 26.5 | 1.2 | 26.2 | – | COc1ccc(-c2cc(C(F)F)nn2-c2ccc(S(N)(=O)=O)cc2)cc1F [Compound 113, Deracoxib] | –
16 | 2.3 | 47.1 | 27.6 | 621.3 | most robust response | OC[C@@H](O)CN1CCN(c2ccccc2)CC1 [Levodropropizine] | –
